Laboratory results: ChEMBL document CHEMBL4251578, “Design, synthesis and biological evaluation of novel 2-aminobenzamides containing dithiocarbamate moiety as histone deacetylase inhibitors and potent antitumor agents” (Eur J Med Chem, 2018)

Legend:
[1] = target: Histone deacetylase; test: Inhibition of HDAC in human HeLa cell extract using Fluor de Lys-Green as substrate preincubated for 5 mins followed by substrate addition and measured after 1 hr by fluorescence assay; format: protein assay
[2] = system: HCT-116; test: Antiproliferative activity against human HCT116 cells after 72 hrs by CCK-8 assay; format: functional, cell-based; conditions: for IC50: HCT-116, 72 h
[3] = system: SMMC-7721; test: Cell cycle arrest in human SMMC7721 cells assessed as accumulation of cells at G0/G1 phase at 1 umol/L after 72 hrs by propidium iodide staining-based flow cytometric analysis (reference value: 80.65%); format: functional
[4] = system: SMMC-7721; test: Induction of apoptosis in human SMMC7721 cells assessed as necrotic cells at 0.125 umol/L after 72 hrs by Alexa Fluor 488 Annexin/propidium iodide staining-based flow cytometric analysis (reference value: 2.48%); format: functional
[5] = system: SMMC-7721; test: Cell cycle arrest in human SMMC7721 cells assessed as accumulation of cells at S phase at 0.125 umol/L after 72 hrs by propidium iodide staining-based flow cytometric analysis (reference value: 5.21%); format: functional
[6] = system: SMMC-7721; test: Induction of apoptosis in human SMMC7721 cells assessed as necrotic cells at 4 umol/L after 72 hrs by Alexa Fluor 488 Annexin/propidium iodide staining-based flow cytometric analysis (reference value: 2.48%); format: functional
[7] = system: NCI-H1299; test: Antiproliferative activity against human NCI-H1299 cells after 72 hrs by CCK-8 assay; format: functional, cell-based; conditions: for IC50: NCI-H1299, 72 h
[8] = system: SMMC-7721; test: Cell cycle arrest in human SMMC7721 cells assessed as accumulation of cells at G0/G1 phase at 4 umol/L after 72 hrs by propidium iodide staining-based flow cytometric analysis (reference value: 80.65%); format: functional
[9] = system: A-375; test: Antiproliferative activity against human A375 cells at 8 uM after 72 hrs by CCK-8 assay relative to control; format: functional; conditions: A-375, 72 h
[10] = system: SMMC-7721; test: Induction of apoptosis in human SMMC7721 cells assessed as viable cells at 1 umol/L after 72 hrs by Alexa Fluor 488 Annexin/propidium iodide staining-based flow cytometric analysis (reference value: 97.14%); format: functional; conditions: SMMC-7721, 72 h, read-out: Activity
[11] = system: SMMC-7721; test: Cell cycle arrest in human SMMC7721 cells assessed as accumulation of cells at G0/G1 phase at 0.125 umol/L after 72 hrs by propidium iodide staining-based flow cytometric analysis (reference value: 80.65%); format: functional
[12] = system: SMMC-7721; test: Induction of apoptosis in human SMMC7721 cells after 72 hrs by Alexa Fluor 488 Annexin/propidium iodide staining-based flow cytometric analysis; format: functional, cell-based
[13] = target: T1, Protein deacetylase HDAC6 (Homo sapiens, UniProt Q9UBN7); test: Inhibition of human recombinant HDAC6 using Fluor de Lys-Green as substrate preincubated for 5 mins followed by substrate addition and measured after 1 hr by fluorescence assay
T1 sequence (Q9UBN7 whole entry): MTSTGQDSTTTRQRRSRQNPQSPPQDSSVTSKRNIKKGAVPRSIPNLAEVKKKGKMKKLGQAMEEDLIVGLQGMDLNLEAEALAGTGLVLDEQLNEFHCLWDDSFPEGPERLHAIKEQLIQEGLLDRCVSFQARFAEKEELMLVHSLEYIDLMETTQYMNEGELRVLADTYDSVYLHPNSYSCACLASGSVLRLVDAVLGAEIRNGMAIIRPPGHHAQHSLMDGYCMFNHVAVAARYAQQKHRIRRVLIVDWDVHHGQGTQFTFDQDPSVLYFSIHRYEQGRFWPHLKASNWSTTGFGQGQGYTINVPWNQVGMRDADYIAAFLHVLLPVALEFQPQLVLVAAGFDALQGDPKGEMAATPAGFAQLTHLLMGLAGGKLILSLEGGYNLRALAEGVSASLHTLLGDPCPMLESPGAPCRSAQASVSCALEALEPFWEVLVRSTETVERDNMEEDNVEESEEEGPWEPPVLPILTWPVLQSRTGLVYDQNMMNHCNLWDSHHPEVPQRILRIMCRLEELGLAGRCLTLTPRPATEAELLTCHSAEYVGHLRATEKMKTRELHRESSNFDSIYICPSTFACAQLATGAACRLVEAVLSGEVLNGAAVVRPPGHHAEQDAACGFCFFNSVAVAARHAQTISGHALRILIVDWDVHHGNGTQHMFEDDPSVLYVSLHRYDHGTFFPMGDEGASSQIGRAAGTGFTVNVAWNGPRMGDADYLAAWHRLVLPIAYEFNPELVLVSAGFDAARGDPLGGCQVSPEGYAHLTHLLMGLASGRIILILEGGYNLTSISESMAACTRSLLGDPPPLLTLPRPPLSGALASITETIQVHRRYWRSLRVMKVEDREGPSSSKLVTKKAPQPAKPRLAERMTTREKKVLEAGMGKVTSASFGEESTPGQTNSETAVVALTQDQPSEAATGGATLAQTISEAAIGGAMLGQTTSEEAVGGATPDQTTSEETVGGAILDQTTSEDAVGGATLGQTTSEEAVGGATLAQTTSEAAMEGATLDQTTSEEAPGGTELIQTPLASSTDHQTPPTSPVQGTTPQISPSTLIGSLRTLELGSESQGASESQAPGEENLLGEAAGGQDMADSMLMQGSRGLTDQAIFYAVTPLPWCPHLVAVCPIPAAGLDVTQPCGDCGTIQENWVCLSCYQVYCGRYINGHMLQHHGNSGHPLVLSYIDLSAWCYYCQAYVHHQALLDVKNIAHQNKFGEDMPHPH

[14] = target: Histone deacetylase 1 (Homo sapiens, UniProt Q13547); test: Inhibition of human recombinant HDAC1 using Fluor de Lys-Green as substrate preincubated for 5 mins followed by substrate addition and measured after 1 hr by fluorescence assay
[15] = system: SMMC-7721; test: Antiproliferative activity against human SMMC7721 cells after 72 hrs by CCK-8 assay; format: functional, cell-based; conditions: for IC50: SMMC-7721, 72 h
[16] = system: SMMC-7721; test: Induction of apoptosis in human SMMC7721 cells assessed as late apoptotic cells at 4 umol/L after 72 hrs by Alexa Fluor 488 Annexin/propidium iodide staining-based flow cytometric analysis (reference value: 0.29%); format: functional
[17] = system: SMMC-7721; test: Cell cycle arrest in human SMMC7721 cells assessed as accumulation of cells at […] phase after 72 hrs by propidium iodide staining-based flow cytometric analysis; format: functional

Sequence of Histone deacetylase 1 (Q13547 whole entry): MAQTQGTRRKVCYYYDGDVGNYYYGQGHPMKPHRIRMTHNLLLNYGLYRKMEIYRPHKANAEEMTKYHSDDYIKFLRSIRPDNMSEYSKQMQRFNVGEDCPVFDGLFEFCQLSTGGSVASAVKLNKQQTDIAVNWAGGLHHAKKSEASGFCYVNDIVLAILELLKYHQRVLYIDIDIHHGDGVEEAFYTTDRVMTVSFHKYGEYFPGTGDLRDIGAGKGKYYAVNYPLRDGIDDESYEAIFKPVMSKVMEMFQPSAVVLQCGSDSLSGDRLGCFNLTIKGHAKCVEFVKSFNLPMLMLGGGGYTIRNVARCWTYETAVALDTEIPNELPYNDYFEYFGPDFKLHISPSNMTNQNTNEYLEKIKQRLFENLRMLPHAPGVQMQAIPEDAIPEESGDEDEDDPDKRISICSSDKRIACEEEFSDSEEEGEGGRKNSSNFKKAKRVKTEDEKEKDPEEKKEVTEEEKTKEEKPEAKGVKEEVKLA

IC50 [1] [µM]	IC50 [2] [µM]	IC50 [7] [µM]	IC50 [13] [µM]	IC50 [14] [µM]	IC50 [15] [µM]	Structure (SMILES)	Activity [3] [%]	Activity [4] [%]	Activity [5] [%]	Activity [6] [%]	Activity [8] [%]	inhibition at 8 µM [9] [%]	viability at 1 µM [10] [%]	Activity [11]	Activity ([11]; record 2) [%]	Activity [12]	Activity [16] [%]	Activity [17]	other results
0.72	0.54	2.49	> 40	0.48	1.34	Nc1ccccc1NC(=O)c1ccc(CSC(=S)N2CCN(c3ccncc3)CC2)cc1	79.27	11.27	7.28	3.17	85.19	90.7	66.7	Dose-dependent effect	80.71	Dose-dependent effect	52.78		Activity [2]: Dose-dependent effect; Activity [7]: Dose-dependent effect; Activity [15]: Dose-dependent effect
1.8	0.75	0.75	> 40	1.38	1.21	CCN(Cc1ccncc1)C(=S)SCc1ccc(C(=O)Nc2ccccc2N)cc1	71.44	12.93	6.81	1.27	41.87	86.2	54.7	Dose-dependent effect	81.27	Dose-dependent effect	31.88	Dose-dependent effect	
	1.56	0.98	> 40	2.57	1.2	Nc1ccccc1NC(=O)c1ccc(CSC(=S)N2CCc3ccccc3C2)cc1	67.59	3.49	5.7	1.94	64.06	86.7	57.3	Dose-dependent effect	78.41	Dose-dependent effect	26.7	Dose-dependent effect	
